IC50 data for seven molecules are collected here from US20220273659A1, “HETEROCYCLIC COMPOUNDS AS KINASE INHIBITORS” (NUVATION BIO INC., priority 2019, published 2022).

Structures are written as SMILES. Where two headings read alike, the source gives them in different places.

One experiment concerns the target T1, CDK4 (Homo sapiens, UniProt P11802).
T1 construct: purchased Invitrogen PR8064A
Description: In vitro kinase inhibition IC50, luminescence (ADP Glo), retinoblastoma substrate. Format: biochemical. The conditions noted are these: read-out: CDK4/D1 IC50. In a few lines: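 CDK4 enzyme (5 nM, Invitrogen) was combined with test compound and a mix of retinoblastoma substrate (1 μM) plus ATP (25 μM) in kinase buffer, 30 μL/well in 96-well half area white plates. After 2H at room temperature, ADP Glo reagent stopped the reaction for 45 min, then detection reagent was added and luminescence was read.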
Background: In ADP-Glo the light output rises with the ADP produced.

The target of a further experiment is T2, CDK6 (Homo sapiens, UniProt Q00534).
T2 construct: purchased Invitrogen PR8422B
The description is as above. The experiment is classed as biochemical. The conditions noted are these: read-out: CDK6/D1 IC50. In outline: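 Recombinant CDK6 (5 nM) with retinoblastoma substrate (1 μM) and 25 μM ATP, compound at final 0.1–200 nM, incubated 2 h at room temperature. ADP formed detected by ADP-Glo luminescence. IC50 from four-parameter logistic fit of percent inhibition.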

The target of the next experiment is T3, CDK1 (cyclin B) (Homo sapiens, UniProt P06493).
T3 construct: purchased Invitrogen Life Technologies (assay service)
In words: Z'-LYTE kinase assay. Format: biochemical. How it is done: The plates were shaken for 30 seconds, and incubated for 60 minutes at room temperature. […] The plates were read on fluorescence plate reader with Dual emission at 445 nm and 520 nm.
The following equations were used for Z′-LYTE™ Screening Assay Data Analysis.

Another experiment has as its target T4, CDK2 (cyclin A) (Homo sapiens, UniProt P24941).
T4 construct: purchased Invitrogen Life Technologies (assay service)
Description: Z'-LYTE kinase assay. The experiment is classed as biochemical. In a few lines:
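FRET-based Z′-LYTE read-out using 1.22–10.3 ng CDK2/cyclin A with Ser/Thr 12 peptide (2 μM in the 2× mix) and ATP (31 μM as the 4× solution), in HEPES pH 7.5, MgCl2, EGTA and BRIJ-35, for 60 min at room temperature. After 1 h of development, the 445/520 nm emission was read, and percent inhibition was fitted to a four-parameter logistic curve for IC50.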

In the next experiment the target is T5, FMS kinase (Homo sapiens, UniProt P07333).
T5 construct: purchased Invitrogen (Life Technologies)
Description: LanthaScreen Eu Kinase Binding Assay (ATP, fluorescent-PolyGT substrate). The experiment is classed as biochemical. In outline: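 Kinase (1.25 nM) preincubated 10 min with 3-fold compound dilutions, then ATP 10 μM and fluorescent PolyGT substrate 200 nM added for 1 h in the dark at room temperature. Stopped with Tb-antibody (4 nM) and EDTA 20 mM; TR-FRET at 340 nm excitation, 495/520 nm emission; IC50 from four-parameter fit.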
For orientation: In TR-FRET formats the signal depends on donor and acceptor labels being close together.

The subject of experiment [1] is DU4475 breast carcinoma cells. Description: Cancer cell proliferation assay, single agent (cell viability). Format: cell-based. As to conditions: Homo sapiens, DU-4475; Table 4; Rb negative; treatment 144 Hr with medium change at 72 Hr; Cell Titer-Glo or resazurin. In a few lines: (§1)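 Cells seeded day 1, then exposed on day 2 to 7–9 compound concentrations (e.g. 1.1 nM–10 μM); BT-549 for 24 h, MCF-7 and DU4475 for 144 h with medium change at 72 h. Viability by CellTiter-Glo or resazurin; IC50 from variable-slope sigmoidal fit.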
In general terms: In ATP-based viability assays light output follows the ATP content of the culture.

Experiment [2] relates to MCF-7 breast adenocarcinoma cells. The description is as above. As to conditions: Homo sapiens, MCF7, Table 4; Rb positive; treatment 144 Hr with medium change at 72 Hr; Cell Titer-Glo or resazurin. The experiment is classed as cell-based. In a few lines:
as §1

T1 sequence (P11802 whole entry): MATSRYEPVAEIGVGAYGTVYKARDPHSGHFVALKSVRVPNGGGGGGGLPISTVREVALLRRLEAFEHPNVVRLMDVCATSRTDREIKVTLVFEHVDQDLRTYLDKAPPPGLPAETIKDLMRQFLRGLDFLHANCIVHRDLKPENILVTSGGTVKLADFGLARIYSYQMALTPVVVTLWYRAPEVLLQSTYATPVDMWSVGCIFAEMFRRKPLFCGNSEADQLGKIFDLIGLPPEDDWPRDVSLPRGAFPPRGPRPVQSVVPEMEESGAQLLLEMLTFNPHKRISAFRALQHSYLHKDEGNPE
T1 sequence (P24385 whole entry partner): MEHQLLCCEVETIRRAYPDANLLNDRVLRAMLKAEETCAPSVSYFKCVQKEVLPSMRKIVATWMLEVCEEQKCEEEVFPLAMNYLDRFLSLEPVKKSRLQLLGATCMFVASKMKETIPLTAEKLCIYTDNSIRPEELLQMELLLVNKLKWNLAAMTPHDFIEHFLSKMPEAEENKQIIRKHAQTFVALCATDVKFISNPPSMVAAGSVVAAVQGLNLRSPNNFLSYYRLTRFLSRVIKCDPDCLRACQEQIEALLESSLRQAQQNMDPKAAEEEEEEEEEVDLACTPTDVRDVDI
T2 sequence (Q00534 whole entry): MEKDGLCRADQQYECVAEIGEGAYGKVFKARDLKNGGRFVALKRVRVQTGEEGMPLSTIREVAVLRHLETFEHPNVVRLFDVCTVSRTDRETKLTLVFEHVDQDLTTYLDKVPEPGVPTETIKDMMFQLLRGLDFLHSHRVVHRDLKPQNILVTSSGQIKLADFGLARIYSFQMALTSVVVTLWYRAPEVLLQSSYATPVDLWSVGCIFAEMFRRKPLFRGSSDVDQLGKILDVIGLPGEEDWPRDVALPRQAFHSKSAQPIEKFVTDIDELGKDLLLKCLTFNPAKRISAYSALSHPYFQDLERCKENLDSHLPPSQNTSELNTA
T2 sequence (P24385 whole entry partner): as the sequence (P24385 whole entry partner) above
T3 sequence (P06493 whole entry): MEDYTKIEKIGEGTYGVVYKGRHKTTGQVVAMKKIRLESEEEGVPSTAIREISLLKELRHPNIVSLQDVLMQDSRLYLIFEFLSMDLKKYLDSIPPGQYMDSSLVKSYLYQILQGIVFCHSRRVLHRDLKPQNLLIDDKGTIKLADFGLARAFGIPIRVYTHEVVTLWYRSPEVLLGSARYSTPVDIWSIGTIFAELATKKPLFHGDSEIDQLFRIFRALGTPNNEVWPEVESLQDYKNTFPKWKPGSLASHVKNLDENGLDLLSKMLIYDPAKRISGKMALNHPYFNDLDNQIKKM
T3 sequence (P14635 whole entry partner): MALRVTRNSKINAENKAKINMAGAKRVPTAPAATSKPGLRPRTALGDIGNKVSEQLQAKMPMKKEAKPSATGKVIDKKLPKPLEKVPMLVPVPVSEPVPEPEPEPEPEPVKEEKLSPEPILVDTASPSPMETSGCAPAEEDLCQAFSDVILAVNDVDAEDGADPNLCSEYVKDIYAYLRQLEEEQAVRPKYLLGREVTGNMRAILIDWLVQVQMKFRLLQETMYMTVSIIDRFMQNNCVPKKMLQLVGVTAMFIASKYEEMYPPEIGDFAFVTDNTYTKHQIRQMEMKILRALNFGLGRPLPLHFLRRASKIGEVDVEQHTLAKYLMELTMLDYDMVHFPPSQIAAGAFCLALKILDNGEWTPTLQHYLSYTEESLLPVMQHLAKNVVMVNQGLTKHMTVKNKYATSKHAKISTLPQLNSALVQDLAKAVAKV
T5 sequence (P07333 20-972): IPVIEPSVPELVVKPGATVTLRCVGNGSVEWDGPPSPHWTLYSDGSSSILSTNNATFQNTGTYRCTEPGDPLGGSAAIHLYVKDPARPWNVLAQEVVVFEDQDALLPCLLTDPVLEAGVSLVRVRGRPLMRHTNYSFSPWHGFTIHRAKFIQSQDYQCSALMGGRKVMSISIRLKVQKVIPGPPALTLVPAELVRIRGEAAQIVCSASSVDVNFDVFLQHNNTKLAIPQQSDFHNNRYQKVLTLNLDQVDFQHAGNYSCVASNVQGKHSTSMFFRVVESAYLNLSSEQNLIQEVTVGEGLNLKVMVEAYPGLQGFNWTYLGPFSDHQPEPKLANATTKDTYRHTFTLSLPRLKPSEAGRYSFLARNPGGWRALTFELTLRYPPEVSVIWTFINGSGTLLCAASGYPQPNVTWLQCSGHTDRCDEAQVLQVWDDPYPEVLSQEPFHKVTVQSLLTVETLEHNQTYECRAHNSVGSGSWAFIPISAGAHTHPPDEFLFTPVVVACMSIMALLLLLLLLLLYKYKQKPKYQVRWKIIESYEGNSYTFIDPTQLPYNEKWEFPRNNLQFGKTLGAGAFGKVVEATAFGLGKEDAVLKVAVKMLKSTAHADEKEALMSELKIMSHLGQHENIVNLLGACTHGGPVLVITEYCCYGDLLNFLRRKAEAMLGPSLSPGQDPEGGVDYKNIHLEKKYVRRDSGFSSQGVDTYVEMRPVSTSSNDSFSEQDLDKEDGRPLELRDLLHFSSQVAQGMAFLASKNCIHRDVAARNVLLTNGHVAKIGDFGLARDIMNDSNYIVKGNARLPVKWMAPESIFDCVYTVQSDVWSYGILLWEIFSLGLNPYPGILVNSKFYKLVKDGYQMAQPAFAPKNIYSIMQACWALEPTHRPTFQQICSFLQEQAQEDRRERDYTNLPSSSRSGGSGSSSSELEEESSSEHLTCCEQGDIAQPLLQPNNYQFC

For the molecule `N#Cc1cc2cnc(Nc3ccc4c(c3)CCNC4)nc2n([C@H]2C[C@@H]3CC[C@H]2C3)c1=O` (relative stereo) [Compound No. 354, 8-((S,2S,4R)-bicyclo[2.2.1]heptan-2-yl)-7-oxo-2-(1,2,3,4-tetrahydroisoquinolin-6-ylamino)-7,8-dihydropyrido[2,3-d]pyrimidine-6-carbonitrile], the IC50 on CDK4 was found to be 12 nM; on CDK6, 12 nM; on CDK1 (cyclin B) (read-out: CDK1/B IC50), 534 nM; on CDK2 (cyclin A) it was 176 nM; on FMS kinase, 3.5 nM; in experiment [1], 320 nM. Also, the IC50 in experiment [2] was determined as 120 nM.
Turning to `CCC(CC)n1c(=O)c(C#N)cc2cnc(NC3CCN(S(C)(=O)=O)CC3)nc21` [Compound No. 352, 2-((1-(methylsulfonyl)piperidin-4-yl)amino)-7-oxo-8-(pentan-3-yl)-7,8-dihydropyrido[2,3-d]pyrimidine-6-carbonitrile], the IC50 was 69 nM at CDK4; 21 nM on CDK6; 143 nM at CDK1 (cyclin B); 29 nM against CDK2 (cyclin A); over 5000 nM at FMS kinase; 1130 nM in experiment [1]. The IC50 in experiment [2] worked out at 1420 nM.
On to `N#Cc1cc2cnc(Nc3ccc4c(c3)CCNC4)nc2n(CC2CCCCC2)c1=O` [Compound No. 347, 8-(cyclohexylmethyl)-7-oxo-2-((1,2,3,4-tetrahydroisoquinolin-6-yl)amino)-7,8-dihydropyrido[2,3-d]pyrimidine-6-carbonitrile], for which the IC50 on CDK4 is over 173 nM; on CDK6 it was over 174 nM; on CDK1 (cyclin B) (read-out: CDK1/B IC50) it was 1530 nM; at CDK2 (cyclin A), 668 nM; on FMS kinase it was 3 nM; in experiment [1], 1240 nM. In addition, in experiment [2], the IC50 worked out at 405 nM.
Take `Cc1ccc(S(=O)(=O)N2CCC(Nc3ncc4cc(C#N)c(=O)n(C5CCCC5)c4n3)CC2)cc1` [Compound No. 360, 8-cyclopentyl-7-oxo-2-((1-tosylpiperidin-4-yl)amino)-7,8-dihydropyrido[2,3-d]pyrimidine-6-carbonitrile]: the IC50 is 1.5 nM on CDK4; 13 nM on CDK6; 598 nM against CDK1 (cyclin B); under 1 nM on CDK2 (cyclin A); over 5000 nM on FMS kinase; 1420 nM in experiment [1]. Besides, the IC50 in experiment [2] worked out at 255 nM.
For `CS(=O)(=O)N1CCC(Nc2ncc3cc(C#N)c(=O)n(C4COCC4O)c3n2)CC1` (stereo not shown) [Compound No. 350, 8-(4-hydroxytetrahydrofuran-3-yl)-2-((1-(methylsulfonyl)piperidin-4-yl)amino)-7-oxo-7,8-dihydropyrido[2,3-d]pyrimidine-6-carbonitrile], the IC50 at CDK4 was over 200 nM; on CDK6, over 200 nM; at CDK1 (cyclin B) (read-out: CDK1/B IC50) it was 2270 nM; at CDK2 (cyclin A) it was 235 nM; on FMS kinase, over 5000 nM; in experiment [1] it was over 30000 nM. Further, the IC50 in experiment [2] is over 10000 nM.
On to `CS(=O)(=O)N1CC[C@@H](Nc2ncc3cc(C#N)c(=O)n(C4CCCC4)c3n2)[C@H](F)C1` [Compound No. 362, 8-cyclopentyl-2-((3R,4R)-3-fluoro-1-(methylsulfonyl)piperidin-4-ylamino)-7-oxo-7,8-dihydropyrido[2,3-d]pyrimidine-6-carbonitrile], for which the IC50 on CDK4 came out at 6 nM; at CDK6, 15 nM; against CDK1 (cyclin B), 1280 nM; on CDK2 (cyclin A) it was 82 nM; on FMS kinase it was 90 nM; in experiment [1], 2680 nM. The same molecule came in with an IC50 in experiment [2] of 765 nM.
On to `CCC(C)n1c(=O)c(C#N)cc2cnc(NC3CCN(S(C)(=O)=O)CC3)nc21` (stereo not shown) [Compound No. 351, 8-(sec-butyl)-2-((1-(methylsulfonyl)piperidin-4-yl)amino)-7-oxo-7,8-dihydropyrido[2,3-d]pyrimidine-6-carbonitrile], for which the IC50 is 48 nM at CDK4; 15 nM on CDK6; 117 nM at CDK1 (cyclin B) (read-out: CDK1/B IC50); 18 nM against CDK2 (cyclin A); 1160 nM on FMS kinase; 1400 nM in experiment [1]. Further, the IC50 in experiment [2] amounted to 205 nM.
